Patent publication US8802858B2, “Furazanobenzimidazoles as prodrugs to treat neoplastic or autoimmune diseases” (Basilea Pharmaceutica AG, priority 2009, dated 2014)
In brackets after ≈: the same amount, converted by molar mass. Like-named read-outs stand apart in the source and are kept apart here.

How the values were obtained:
[1] = Pharmacokinetic studies in xenografted mice (plasma and tumor); assay type: in vivo, CD-1 Nu/Nu female mice; settings: female, CD-1 Nu/Nu, mouse, iv
Protocol: CD-1 Nu/Nu female mice implanted with the human colon carcinoma SW480 cell line are treated with either the “Parent Drug”, i.e. 3-(4-{1-[2-(4-amino-phenyl)-2-oxo-ethyl]-1H-benzoimidazol-2-yl}-furazan-3-ylamino)-propionitrile, or “Example 1” i.e. S-2,6-diamino-hexanoic acid [4-(2-{2-[4-(2-cyano-ethylamino)-furazan-3-yl]-benzoimidazol-1-yl}-acetyl)-phenyl]-amide hydrochloride salt, when the tumor size reached approximately 150 mm^3+/−10%. Mice (33 per compound) are treated i.v. […]
After the 4th application (4th week), three mice/sampling point from the “Parent Drug” and “Example 1” groups are culled before and 5 min, 15 min, 30 min, 45 min, 1 h, 1.5 h, 2 h, 4 h, 6 h and 24 h post-administration. Blood is collected by cardiac puncture into K3EDTA tubes kept on ice until centrifugation at 4° C. Plasma is stored at −20° C. At necropsy, tumors are removed and weighed. Tumors are stored at −20° C. Plasma and tumor samples are analyzed by LC-MS/MS. Pharmacokinetic parameters are calculated using WinNonLin 5.2. All results for “Example 1” represent the free base.

[2] = Determination of kinetic solubility; assay type: physicochemical; settings: aqueous buffer, kinetic from dmso stock, 2.5% DMSO, room temperature, read-out: C eff
Protocol: Compounds, provided as 20 mM or 10 mM stock solutions in 100% DMSO, are diluted 1:40 in aqueous buffer to a concentration of 0.5 mM or 0.25 mM, respectively, with 2.5% residual DMSO. The pH 6.5 buffer consists of 0.05 M 3-(N-morpholino)-2-hydroxypropanesulfonic acid (MOPSO) adjusted to the target pH with NaOH. Buffers at pH 5 and pH 3 are prepared from commercially available concentrates (Titrisol®, Merck). The samples are then incubated at room temperature for 6 hours with gentle shaking followed by vacuum filtration through a MultiScreen DV plate (Durapore hydrophilic PVDF membrane, 0.65 μm pore size, Millipore). The filtrates are adjusted to 20% acetonitrile and analyzed by UV spectroscopy to obtain the absorption maximum and the corresponding wavelength. The concentration of compound in the filtrate is calculated based on the linear part of a standard curve constructed using 3 to 5 known concentrations of each sample in aqueous buffer supplemented with 20% acetonitrile.

[3] = test system: SW480 colorectal cancer xenografts; assay: In vivo efficacy studies, SW480 xenografts; set-up: species or system athymic nude mice; settings: for final T/C (ratio of tumor volume in the treatment group vs. the control group) at day 24: once weekly i.v. for 24 days, prodrug 21 mg/kg, parent drug 8 mg/kg; for final T/C (day 24): three times per week (d1/4/7) i.v. for 24 days, prodrug 7.1 mg/kg
Source text: (§1) Mice bearing SW480 colorectal cancer xenografts are used to test and compare the anti-cancer efficacy and tolerability of intravenous (i.v.) application of the prodrug according to Example 1 (S-2,6-diamino-hexanoic acid [4-(2-{2-[4-(2-cyano-ethylamino)-furazan-3-yl]-benzoimidazol-1-yl}-acetyl)-phenyl]-amide hydrochloride salt) and the corresponding parent drug” (3-(4-{1-[2-(4-amino-phenyl)-2-oxo-ethyl]-1H-benzoimidazol-2-yl}-furazan-3-ylamino)-propionitrile) at the maximum tolerated dose level (MTD). Prior to the efficacy experiment, a determination of the MTD of each compound administered once weekly is performed in non-tumor-bearing nude mice of the same strain. Administration of 24.5 mg/kg prodrug and 10 mg/kg parent drug, given as an i.v. bolus once weekly, results in body weight losses >10% in a few animals in both groups. The MTDs in tumor-bearing mice are, therefore, determined to be 15-20% lower, resulting in doses of 21 mg/kg prodrug and 8 mg/kg parent drug. Human colorectal carcinoma cells (SW480) are injected subcutaneously (4×10^6 cells) into the back of 4-8-week old athymic nude mice. Tumor volumes are determined from calliper measurements of tumor length (L) and width (1) according to the formula (L×l^2)/2. Tumors are allowed to expand to a volume of 200 mm^3 (±10%) before treatment start. The prodrug and parent drug are administered i.v. for 24 days, either once per week at 21 mg/kg and 8 mg/kg, respectively, or three times a week (d1/4/7) at 7.1 mg/kg and 2.7 mg/kg, respectively (both schedules represent the same total weekly dose). Tumor volume and body weight are monitored daily.
(§2) FIG. 1 provides a graphical representation of the changes in mean tumor volume during the time of treatment when using the administration schedule, wherein prodrug and parent drug are given once weekly for 24 days at doses of 21 mg/kg and 8 mg/kg, respectively, with appropriate vehicle controls (5 ml/kg) administered with the same schedule. Data points represent mean values+/−SEM (n=7-8 animals, each animal was engrafted with one tumor).
as §2, with “2” for “1”, “three times per week (d1/4/7)” for “once weekly”, “7.1” for “21”, “2.7 mg/kg in 5 ml/kg,” for “8 mg/kg,”, “points again” for “points”

[4] = Determination of the maximum tolerated dose (MTD), once weekly i.v.; settings: athymic nude, mouse, in vivo, iv
Source text: as §1, with “The prodrug and parent drug are administered i.v. for 24 days, either once per week at 21 mg/kg and 8 mg/kg, respectively, or three times a week (d1/4/7) at 7.1 mg/kg and 2.7 mg/kg, respectively (both schedules represent the same total weekly dose).” left out

[5] = Prodrug-drug conversion in full blood; assay type: in vitro ADME; settings: fresh heparinised rat blood, 37° C., after 120 min
Protocol: 495 μL fresh heparinised rat blood are spiked with 5 μL of a 1 mg/mL DMSO solution of the analyte (prodrug) at 37° C. After t=0, 5, 15, 30, 60 and 120 min, a blood sample is taken and precipitated. Therefore to 50 μL blood sample or spiked blood sample 150 μL acetonitrile containing an internal standard are added. Samples are centrifuged and 20 μl of the supernatant are injected into the HPLC system for determination of compound concentration (prodrug and parent drug) by LC-MS/MS analysis.
For calibration, a standard curve is prepared with a compound concentration range from 10 to 10000 ng/mL in fresh heparine rat blood. Therefore the blood is spiked (2 μL DMSO solution in 198 μL fresh rat blood) and precipitated like unknown samples.

[6] = In vivo pharmacokinetic studies, intravenous administration, Vena saphena screening method; set-up: species or system male NMRI mice; settings: mice, i.v. administration of the prodrug
Protocol: The compounds are evaluated in vivo after intravenous administration to male NMRI mice using the Vena saphena screening method.
A dose of 1 mg/kg of the compound is administered i.v. as a bolus (5 mL/kg). Serial blood samples (40 μL) are drawn after puncture of the saphenous vein and collected in a sodium heparin coated capillary tube from two mice per time point at pre-dose, 5 min, 15 min, 30 min, 45 min, 1 h, 2 h, 4 h, 6 h, 8 h and 24 h after intravenous administration.
Blood samples are weighed and the blood quenched in 300 μl stop solution consisting of acetonitrile/water (80:20) and an internal standard.
Blood concentrations of the compound (prodrug) and its parent drug are determined using LC-MS/MS analysis with a limit of quantification of 4 to 40 ng/mL.
Mean arithmetic plasma/blood concentrations are calculated using BLQ (below limit of quantitation)−value of zero if necessary. • Mean AUCinfIV [ng*h/mL] The area under the blood concentration-time curve for a mean normalized (1 mg/kg) iv application from time zero to the last sampling time with a concentration above the limit of quantification. • Mean AUCinfIV is calculated according to the linear trapezoidal rule.
In a study mice are intravenously treated with prodrugs according to the invention, followed by determination of the blood concentration of the drug. […]

N#CCCNc1nonc1-c1nc2ccccc2n1CC(=O)c1ccc(NC(=O)[C@@H](N)CCCCN)cc1 [Example 1, S-2,6-diamino-hexanoic acid [4-(2-{2-[4-(2-cyano-ethylamino)-furazan-3-yl]-benzoimidazol-1-yl}-acetyl)-phenyl]-amide]
AUC(0-t) ([1]; plasma, analyte Example 1 (free base), after i.v. 19.6 mg Example 1, xenografted mice, read-out: AUClast of Example 1 in plasma): 21100 ng·h/mL | Cmax ([1]; plasma, analyte Example 1 (free base), after i.v. 19.6 mg Example 1, xenografted mice, read-out: Cmax of Example 1 in plasma): 81900 ng/mL | half-life ([1]; plasma, analyte Example 1 (free base), after i.v. 19.6 mg Example 1, xenografted mice, read-out: T1/2 of Example 1 in plasma (converted)): 5.5 h | AUC(0-t) ([1]; tumor, analyte Example 1 (free base), after i.v. 19.6 mg Example 1, xenografted mice, read-out: AUClast of Example 1 in tumors): 29300 ng·h/mL | Cmax ([1]; tumor, analyte Example 1 (free base), after i.v. 19.6 mg Example 1, xenografted mice, read-out: Cmax of Example 1 in tumors): 6010 ng/mL | half-life ([1]; tumor, analyte Example 1 (free base), after i.v. 19.6 mg Example 1, xenografted mice, read-out: T1/2 of Example 1 in tumors (converted)): 9.6 h | solubility kinetic at 6 h ([2]; pH 3.0 buffer): > 200 µM | solubility kinetic at 6 h ([2]; pH 5.0 buffer): > 200 µM | solubility kinetic at 6 h ([2]; pH 6.5 buffer): 190 µM (≈ 98 µg/mL) | final T/C (ratio of tumor volume in the treatment group vs. the control group) at day 24 [3]: 34% | final T/C (day 24) ([3]; parent drug 2.7 mg/kg): 26% | MTD [4]: 21 mg/kg

C[C@H](N)C(=O)Nc1ccc(C(=O)Cn2c(-c3nonc3NCCC#N)nc3ccccc32)cc1 [Example 2]
solubility kinetic at 6 h ([2]; pH 3.0 buffer): > 200 µM | solubility kinetic at 6 h ([2]; pH 5.0 buffer): 55 µM (≈ 25.2 µg/mL) | solubility kinetic at 6 h ([2]; pH 6.5 buffer): 91 µM (≈ 41.7 µg/mL)

N#CCCNc1nonc1-c1nc2ccccc2n1CC(=O)c1ccc(NC(=O)CN)cc1 [Example 3]
solubility kinetic at 6 h ([2]; pH 3.0 buffer): > 200 µM | solubility kinetic at 6 h ([2]; pH 5.0 buffer): 71 µM (≈ 31.6 µg/mL) | solubility kinetic at 6 h ([2]; pH 6.5 buffer): 106 µM (≈ 47.1 µg/mL)

CC(C)C[C@H](N)C(=O)Nc1ccc(C(=O)Cn2c(-c3nonc3NCCC#N)nc3ccccc32)cc1 [Example 11]
solubility kinetic at 6 h ([2]; pH 3.0 buffer): 189 µM (≈ 94.6 µg/mL) | solubility kinetic at 6 h ([2]; pH 5.0 buffer): 37 µM (≈ 18.5 µg/mL) | solubility kinetic at 6 h ([2]; pH 6.5 buffer): 20 µM (≈ 10 µg/mL)

NCC(=O)Nc1ccc(C(=O)Cn2c(-c3nonc3N)nc3ccccc32)cc1 [Example 12, 2-Amino-N-(4-{2-[2-(4-amino-furazan-3-yl)-benzoimidazol-1-yl]-acetyl}-phenyl)-acetamide]
conversion of prodrug into its parent drug [5]: completely converted

NCC(=O)Nc1nonc1-c1nc2ccccc2n1CC(=O)c1ccc(N)cc1 [Example 13, 2-Amino-N-(4-{1-[2-(4-amino-phenyl)-2-oxo-ethyl]-1H-benzoimidazol-2-yl}-furazan-3-yl)-acetamide]
conversion of prodrug into its parent drug [5]: approximately 74%

CN(C)/C=N/c1ccc(C(=O)Cn2c(-c3nonc3NCCC#N)nc3ccccc32)cc1 [Example 14, N′-[4-(2-{2-[4-(2-Cyano-ethylamino)-furazan-3-yl]-benzoimidazol-1-yl}-acetyl)-phenyl]-N,N-dimethyl-formamidine]
levels of the parent drug after intravenous administration [6]: no significant levels

N#CCCNc1nonc1-c1nc2ccccc2n1CC(=O)c1ccc(NS(=O)(=O)O)cc1 [Example 15, [4-(2-{2-[4-(2-Cyano-ethylamino)-furazan-3-yl]-benzoimidazol-1-yl}-acetyl)-phenyl]-sulfamic acid]
levels of the parent drug after intravenous administration [6]: no significant levels

N#CCCNc1nonc1-c1nc2ccccc2n1CC(=O)c1ccc(N)cc1 [Parent Drug, 3-(4-{1-[2-(4-Amino-phenyl)-2-oxo-ethyl]-1H-benzoimidazol-2-yl}-furazan-3-ylamino)-propionitrile, reference compound]
Cmax ([1]; plasma, after i.v. 8 mg/kg Parent Drug, 4th application, xenografted mice, read-out: Cmax of Parent Drug in plasma): 11000 ng/mL | AUC(0-t) ([1]; plasma, after i.v. 8 mg/kg Parent Drug, xenografted mice, read-out: AUClast of Parent Drug in plasma): 44800 ng·h/mL | half-life ([1]; plasma, after i.v. 8 mg/kg Parent Drug, xenografted mice, read-out: T1/2 of Parent Drug in plasma (converted)): 3.2 h | Cmax ([1]; tumor, after i.v. 8 mg/kg Parent Drug, 4th application, xenografted mice, read-out: Cmax of Parent Drug in tumors): 3210 ng/mL | AUC(0-t) ([1]; tumor, after i.v. 8 mg/kg Parent Drug, xenografted mice, read-out: AUClast of Parent Drug in tumors): 45500 ng·h/mL | half-life ([1]; tumor, after i.v. 8 mg/kg Parent Drug, xenografted mice, read-out: T1/2 of Parent Drug in tumors (converted)): 5.4 h | solubility kinetic at 6 h ([2]; pH 3.0 buffer): < 10 µM | solubility kinetic at 6 h ([2]; pH 5.0 buffer): < 10 µM | solubility kinetic at 6 h ([2]; pH 6.5 buffer): < 10 µM | final T/C (ratio of tumor volume in the treatment group vs. the control group) at day 24 [3]: 45% | final T/C (day 24) ([3]; parent drug 2.7 mg/kg): 54% | death of animals during treatment ([3]; three times per week i.v., parent drug 2.7 mg/kg): one animal in the parent drug-group (three times per week treatment) died at day 10 | MTD ([4]; i.v. once weekly, set 15-20% lower than dose causing body weight loss, read-out: MTD in tumor-bearing mice): 8 mg/kg
